These results are taken from patent US8933224B2, “Triazine derivatives” (Pfizer Inc., priority 2013, dated 2015).

For one experiment, the target named is rat PDE10 enzyme (Rattus norvegicus (Rat), UniProt Q9QYJ6). Briefly: PDE10 scintillation proximity assay (SPA), inhibition of rat PDE10 enzyme activity. To be noted: geometric mean of 2-4 determinations unless otherwise indicated (b: ≧5 determinations; c: single determination). The class given is biochemical. In short, it runs like this: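 SPA with fixed recombinant PDE10 (Sf21-expressed, Ni-NTA and Mono Q purified) converting ~20% of 20 nM ³H-cAMP in 50 mM TRIS pH 7.5, 1.3 mM MgCl2, 0.01% Brij, across an inhibitor range.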
rat PDE10 enzyme, sequence (Q9QYJ6 24-794): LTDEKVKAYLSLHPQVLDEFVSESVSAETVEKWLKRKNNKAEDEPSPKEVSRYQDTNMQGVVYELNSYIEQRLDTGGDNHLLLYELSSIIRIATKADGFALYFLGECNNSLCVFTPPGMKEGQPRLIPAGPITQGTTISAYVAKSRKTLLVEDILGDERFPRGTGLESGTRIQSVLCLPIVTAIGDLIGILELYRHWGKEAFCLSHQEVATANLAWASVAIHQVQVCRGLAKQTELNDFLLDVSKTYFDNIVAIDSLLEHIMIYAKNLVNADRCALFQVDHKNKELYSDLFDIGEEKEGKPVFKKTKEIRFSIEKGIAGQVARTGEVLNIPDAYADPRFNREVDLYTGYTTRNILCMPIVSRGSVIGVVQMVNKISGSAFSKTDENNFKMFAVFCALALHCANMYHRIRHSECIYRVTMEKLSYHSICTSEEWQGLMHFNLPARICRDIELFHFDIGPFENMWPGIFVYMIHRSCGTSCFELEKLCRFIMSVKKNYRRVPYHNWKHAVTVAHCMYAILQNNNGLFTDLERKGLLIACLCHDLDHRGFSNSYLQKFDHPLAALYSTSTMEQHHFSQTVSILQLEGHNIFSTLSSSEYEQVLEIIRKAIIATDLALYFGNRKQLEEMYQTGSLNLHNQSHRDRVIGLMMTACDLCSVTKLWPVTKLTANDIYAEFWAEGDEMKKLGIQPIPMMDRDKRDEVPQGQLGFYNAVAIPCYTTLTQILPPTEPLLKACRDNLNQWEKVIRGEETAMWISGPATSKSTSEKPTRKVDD
(In general: Scintillation proximity formats need no separation of bound from free tracer.)

Experiment [1] deals with human recombinant PDE10 enzyme (PDE10A) (Homo sapiens, UniProt Q9Y233). Briefly: PDE10 scintillation proximity assay (SPA), inhibition of human recombinant PDE10 enzyme activity. The class given is biochemical. To be noted: geometric mean of 2-4 determinations unless otherwise indicated (b: ≧5 determinations; c: single determination). In short, it runs like this:
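His6-tagged human PDE10A (aa 21–797) was expressed in insect cells and purified by Ni-NTA and size exclusion. The enzyme, at a level converting about 20% of 20 nM ^3H-cAMP, was incubated 30 min at 25°C in 50 mM Tris pH 7.5, 1.3 mM MgCl2, 0.01% Brij with inhibitors. The reaction was stopped with yttrium silicate SPA beads, read by scintillation, and IC50 determined.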

Turning to `COc1ccc2c(n1)CCN(c1ncnn3c(C)nc([C@@H]4CCOC4)c13)C2` [Example 27, 2-methoxy-6-{7-methyl-5-[(3S)-tetrahydrofuran-3-yl]imidazo[5,1-f][1,2,4]triazin-4-yl}-5,6,7,8-tetrahydro-1,6-naphthyridine], the IC50 (commonly the concentration at which inhibition is half-maximal) came out at 0.617 nM against rat PDE10 enzyme and 0.891 nM in experiment [1].

Turning to `Cc1nc(C)c2c(n1)CCN(c1ncnn3c(C)nc(-c4ccccc4F)c13)C2` [Example 130, 6-[5-(2-fluorophenyl)-7-methylimidazo[5,1-f][1,2,4]triazin-4-yl]-2,4-dimethyl-5,6,7,8-tetrahydropyrido[4,3-d]pyrimidine], the IC50 on rat PDE10 enzyme turned out to be 1.65 nM; in experiment [1], 2.34 nM.

Take `Cc1nc(C2CCOCC2)c2c(N3CCc4c(c(C(C)C)nn4C)C3)ncnn12` [Example 21, 4-(3-isopropyl-1-methyl-1,4,6,7-tetrahydro-5H-pyrazolo[4,3-c]pyridin-5-yl)-7-methyl-5-(tetrahydro-2H-pyran-4-yl)imidazo[5,1-f][1,2,4]triazine]: the IC50 against rat PDE10 enzyme was 0.51 nM; in experiment [1], 0.876 nM.

As to `Cc1nc([C@@H]2CCOC2)c2c(N3Cc4c(cnn4C)[C@H](C)C3)ncnn12` (single isomer, unassigned) [Example 20], the concentration for half-maximal inhibition (IC50) on rat PDE10 enzyme amounted to 1.72 nM; in experiment [1] it was 2.51 nM.

For the compound `Cc1nc([C@@H]2CCOC2)c2c(N3CCc4cnn(C(C)C)c4C3)ncnn12` [Example 91], the values for the IC50 (at rat PDE10 enzyme; in experiment [1]) were 0.793 nM and 0.61 nM, respectively.

Consider `Cc1nc([C@@H]2CCOC2)c2c(N3CCc4cnn(C)c4C3)ncnn12` [Example 8, 7-Methyl-4-(1-methyl-1,4,5,7-tetrahydro-6H-pyrazolo[3,4-c]pyridin-6-yl)-5-[(3S)-tetrahydrofuran-3-yl]imidazo[5,1-f][1,2,4]triazine], for which the IC50 was found to be 2.36 nM at rat PDE10 enzyme and 3.41 nM in experiment [1].

Take `CCn1ncc2c1CN(c1ncnn3c(C)nc([C@@H]4CCOC4)c13)CC2` [Example 165, 4-(1-ethyl-1,4,5,7-tetrahydro-6H-pyrazolo[3,4-c]pyridin-6-yl)-7-methyl-5-[(3S)-tetrahydrofuran-3-yl]imidazo[5,1-f][1,2,4]triazine]: the values for the IC50 (against rat PDE10 enzyme; in experiment [1]) were 0.766 nM and 1.02 nM, respectively.

As to `Cc1nc(-c2ccccc2F)c2c(N3CCc4cnn(C)c4C3)ncnn12` [Example 2, 5-(2-Fluorophenyl)-7-methyl-4-(1-methyl-1,4,5,7-tetrahydro-6H-pyrazolo[3,4-c]pyridin-6-yl)imidazo[5,1-f][1,2,4]triazine], the half-inhibitory concentration (IC50) against rat PDE10 enzyme was found to be 2.95 nM; in experiment [1] it was 3.28 nM.

Regarding `Cc1nc([C@@H]2CCOC2)c2c(N3Cc4c(cnn4C)C(C)C3)ncnn12` (stereo partly drawn) [Example 167, 4-(1,4-dimethyl-1,4,5,7-tetrahydro-6H-pyrazolo[3,4-c]pyridin-6-yl)-7-methyl-5-[(3S)-tetrahydrofuran-3-yl]imidazo[5,1-f][1,2,4]triazine], the IC50 at rat PDE10 enzyme amounted to 4.47 nM; in experiment [1] it was 4.11 nM.

In the case of `Cc1nc([C@@H]2CCOC2)c2c(N3CCc4cnn(CC5CCC5)c4C3)ncnn12` [Example 174, 4-[1-(cyclobutylmethyl)-1,4,5,7-tetrahydro-6H-pyrazolo[3,4-c]pyridin-6-yl]-7-methyl-5-[(3S)-tetrahydrofuran-3-yl]imidazo[5,1-f][1,2,4]triazine], the IC50 against rat PDE10 enzyme worked out at 0.359 nM; in experiment [1], 0.345 nM.

Regarding `Cc1nc(-c2ccccc2F)c2c(N3CCc4nc(C5CC5)nc(C(F)(F)F)c4C3)ncnn12` [Example 90, 2-cyclopropyl-6-[5-(2-fluorophenyl)-7-methylimidazo[5,1-f][1,2,4]triazin-4-yl]-4-(trifluoromethyl)-5,6,7,8-tetrahydropyrido[4,3-d]pyrimidine], the IC50 against rat PDE10 enzyme was determined as 3.09 nM; in experiment [1] it was 4.55 nM.

As for `COc1ccc2c(c1)CCN(c1ncnn3c(C)nc([C@@H]4CCOC4)c13)C2` [Example 58, 6-methoxy-2-{7-methyl-5-[(3S)-tetrahydrofuran-3-yl]imidazo[5,1-f][1,2,4]triazin-4-yl}-1,2,3,4-tetrahydroisoquinoline], the IC50 at rat PDE10 enzyme is less than 1.16 nM; in experiment [1] it was 1.12 nM.

Turning to `Cc1nc([C@@H]2CCOC2)c2c(N3CCc4ccc(C(F)(F)F)nc4C3)ncnn12` [Example 157, 7-{7-methyl-5-[(3S)-tetrahydrofuran-3-yl]imidazo[5,1-f][1,2,4]triazin-4-yl}-2-(trifluoromethyl)-5,6,7,8-tetrahydro-1,7-naphthyridine], the IC50 against rat PDE10 enzyme is 0.196 nM; in experiment [1], 0.295 nM.

Take `Cc1nc(-c2ccccc2F)c2c(N3CCc4ccc(C(F)(F)F)nc4C3)ncnn12` [Example 159, 7-[5-(2-fluorophenyl)-7-methylimidazo[5,1-f][1,2,4]triazin-4-yl]-2-(trifluoromethyl)-5,6,7,8-tetrahydro-1,7-naphthyridine]: the IC50 was 9.7 nM on rat PDE10 enzyme and 21.2 nM in experiment [1].

Consider `CCc1nc(C)nc2c1CN(c1ncnn3c(C)nc([C@@H]4CCOC4)c13)CC2` [Example 133, 4-ethyl-2-methyl-6-{7-methyl-5-[(3S)-tetrahydrofuran-3-yl]imidazo[5,1-f][1,2,4]triazin-4-yl}-5,6,7,8-tetrahydropyrido[4,3-d]pyrimidine], for which the results for the IC50 (at rat PDE10 enzyme; in experiment [1]) were 0.37 nM and 0.625 nM, respectively.
